Experimental data: patent US8927562B2, “Fused tricyclic inhibitors of mammalian target of rapamycin” (Merck Sharp & Dohme Corp., priority 2010, dated 2015)

Molecular target: mTOR enzyme (Homo sapiens, UniProt P42345)
Assay: mTOR Kinase Assay
Assay type: biochemical
Settings: 5 μM ATP, 0.1 μM GSTS6K substrate
Experimental: The mTOR assay buffer contains 10 mM hepes (pH 7.4), 50 mM NaCl, 100 μg/ml BSA, 50 mM B-glycerophosphate, 10 mM MnCl2 and 0.5 mM DTT. 20 ng of mTOR enzyme is preincubated with the compound for 10 minutes. 5 μM ATP and 0.1 μM GSTS6K is added. The reaction is incubated for one hour at 30° C. Anti phospho p70S6K (about 1.7 ng/well) and anti GSTXL665 (1:1 Ratio with the substrate GSTS6K) are added after incubating. The plates are read at least 2 hours after adding the anti phospho p70S6K and the anti GSTXL665.
Dose-response curves were plotted from inhibition data generated, each in duplicate, from 8 point serial dilutions of inhibitory compounds. Concentration of compound was plotted against % kinase activity, calculated by CPM of treated samples divided by CPM of untreated samples. To generate IC50 values, the dose-response curves were then fitted to a standard sigmoidal curve and IC50 values were derived by nonlinear regression analysis.

Row | Compound | IC50
1 | C[C@@H](O)C(=O)N1Cc2nc3c(-c4ccc(-c5ccccc5)nc4)cnn3c(N)c2C1 [Example 1, (R)-1-(8-amino-3-(6-phenylpyridin-3-yl)-5H-pyrazolo[1,5-a]pyrrolo[3,4-d]pyrimidin-6(7H)-yl)-2-hydroxypropan-1-one] | 10 to 100 nM
2 | Nc1c2c(nc3c(-c4ccc(-c5ccccc5)nc4)cnn13)CS(=O)(=O)C2 [Example 2, 3-(6-phenylpyridin-3-yl)-5,7-dihydropyrazolo[1,5-a]6,6-dioxidothieno[3,4-d]pyrimidin-8-amine] | 10 to 100 nM
3 | Cc1cn(C2CCN(C(=O)c3nnc(N)[nH]3)CC2)c2nc3c(-c4ccc(-c5ccccc5)nc4)cnn3c(N)c12 [Example 7] | 10 to 100 nM
4 | Cc1cn(C2CCN(C(=O)CO)CC2)c2nc3c(-c4ccc(-c5ccccc5)nc4)cnn3c(N)c12 [Example 9] | < 10 nM
5 | Cc1cn(C2CCN(C(=O)c3nnc[nH]3)CC2)c2nc3c(-c4ccc(-c5ccn(C)n5)nc4)cnn3c(N)c12 [Example 10] | < 10 nM
6 | Cc1cn(C2CCN(C(=O)CO)CC2)c2nc3c(-c4cnn(-c5ccccc5)c4)cnn3c(N)c12 [Example 13] | < 10 nM
7 | Cc1cn(C2CCN(C(=O)CO)CC2)c2nc3c(-c4ccc(-c5ncc[nH]5)nc4)cnn3c(N)c12 [Example 15] | < 10 nM

Further lines, results first:

Row | IC50 | Compound
8 | > 100 nM | Nc1c2c(nc3c(-c4ccc(-c5ccccc5)nc4)cnn13)C(NC1CCOCC1)CC2 (stereo not drawn) [Example 3, 3-(6-phenylpyridin-3-yl)-N5-(tetrahydro-2H-pyran-4-yl)-6,7-dihydro-5H-cyclopenta[d]pyrazolo[1,5-a]pyrimidine-5,8-diamine]
9 | < 10 nM | Cc1cn(C2CCN(C(=O)CO)CC2)c2nc3c(-c4cnc5ccc(F)cc5c4)cnn3c(N)c12 [Example 4, 1-(4-(8-amino-3-(6-fluoroquinolin-3-yl)-7-methyl-5H-pyrazolo[1,5-a]pyrrolo[2,3-d]pyrimidin-5-yl)piperidin-1-yl)-2-hydroxyethanone]
10 | < 10 nM | Cc1cn(C2CCN(C(=O)c3nnc[nH]3)CC2)c2nc3c(-c4cnc5ccc(F)cc5c4)cnn3c(N)c12 [Example 5]
11 | 10 to 100 nM | Cc1cn(C2CCN(C(=O)c3nnc[nH]3)CC2)c2nc3c(-c4ccc(-c5ccccc5)nc4)cnn3c(N)c12 [Example 6]
12 | 10 to 100 nM | Cc1cn(C2CCN(C(=O)c3cc(N)n[nH]3)CC2)c2nc3c(-c4ccc(-c5ccccc5)nc4)cnn3c(N)c12 [Example 8]
13 | 10 to 100 nM | Cc1cn(C2CCN(C(=O)CO)CC2)c2nc3c(-c4ccc(-c5ccn(C)n5)nc4)cnn3c(N)c12 [Example 11]
14 | 10 to 100 nM | Cc1cn(C2CCN(C(=O)c3nnc[nH]3)CC2)c2nc3c(-c4cnn(-c5ccccc5)c4)cnn3c(N)c12 [Example 12]
15 | < 10 nM | Cc1cn(C2CCN(C(=O)c3nnc[nH]3)CC2)c2nc3c(-c4ccc(-c5ncc[nH]5)nc4)cnn3c(N)c12 [Example 14]
